Series [1] in a line: pH of oral gel phase batches, original and diluted. Type of series: physicochemical. To be noted: original gel phase batch with the named active.
Series [2] in a line: Clarity of oral gel phase batches: absorbance at 610 nm (Lambda 25 UV/VIS), original and diluted. Type of series: physicochemical. To be noted: for Absorbance: 610 nm. On the procedure: The clarity of samples with different actives is compared, and the precipitation characteristic of ZLC gel phase by dilution is evaluated. […] Zinc ion concentration in the following batches are all prepared at 0.5% (w/w) zinc level.
Lambda 25 UV/VIS Spectrometer (PerkinElmer) is used to obtain absorbance information for all samples in order to compare the clarity of gel phase between different actives. Absorbance is a logarithmic measure of the amount of light that is absorbed when passing through a substance. Since the particles in the gel absorb light, the more particles existing in solution, the more light absorbed by the gel. Thus, a small number of absorbance of a gel indicates a higher clarity. The absorbance is corrected by using deionized (DI) water as the blank solution under the light source wavelength of 610 nm.

Series [3] is described as follows: Turbidity (percent transmission, TurbiScan) of mouthwash batches, original and diluted. The format is physicochemical. To be noted: zinc 1.01 wt %. On the procedure:
Four 500 g mouthwash batches which contain NaF, ZLC, ZnCl2 and ZnO as active ingredient are formulated with the ingredients shown in Table 1. The objective of this study is to compare the clarity of samples with different actives. Turbidity is evaluated by the percent transmission of light through the solution as measured by a TurbiScan® dispersion stability analyzer. The higher the percent transmission, the more transparent the composition. […] The concentration of zinc ions in ZLC solution is 25300 ppm obtained by ICP (Inductively Coupled Plasma) analysis, which corresponds to approximately 17% weight of ZLC actives in the solution. Zinc ion concentration in all batches is controlled to same level, i.e., 1.01 wt %. Among the four batches, the one that has ZnO as active appears milk white, with 0% transmission, while the other three samples are as clear as the deionized water (Table 2).
All original mouthwash batches are diluted into 2 fold, 4 fold, 8 fold, 16 fold and 32 fold. Turbidity measurements are performed after all solutions are prepared and well shaken. The turbidity data of the samples are shown in Table 3, 4, 5 and 6, for the dilutions of mouthwash containing NaF, ZLC, ZnCl2 and ZnO respectively.

Series [4] is described as follows: Dilution experiment of ZLC neat solution: visible flocculation/precipitation at 37° C. Type of series: physicochemical. On the procedure: Various dilutions of ZLC are prepared to evaluate its efficiency in producing visible precipitates and/or flocculation, which can be delivered in situ onto an oral surface or into a dental opening, such as open tubules.
(§1) A neat solution of ZLC is prepared by 1), reacting 0.5 mole of ZnO powder with 1 mole of lysine HCl in 1 liter of water at room temperature for about 2 hours, and 2) collecting the supernatant through centrifugation followed by filtration using a 0.45 micron membrane. The neat solution has a zinc concentration of 2.39% by weight, and a pH of about 7.03.
(§2) Dilution experiment is conducted by mixing the neat solution with deionized water. The neat solution is diluted by 2×, 4×, 6×, 7×, 8×, 10×, 12×, 16×, 20×, 24×, 28×, and 32×, corresponding to initial zinc concentrations of 1.20%, 0.598%, 0.398%, 0.341%, 0.299%, 0.239%, 0.199%, 0.149%, 0.120%, 0.0996%, 0.0854%, 0.0747%, by weight, respectively. The diluted samples are kept at 37° C., and the rates at which flocculation/precipitation occurred are monitored.

The nature of series [5]: Deposition/occlusion assay on dentine slices, confocal imaging. On the set-up: species or system human. On the procedure: The deposition/occlusion assay is conducted using human dentine slices and the neat solution of Example 5. The dentine slices were prepared by cutting human tooth into thin dentine sections of about 800 microns in thickness, choosing a test side, sanding said test side using a sandpaper of about 600 grit, polishing said test side using a Buehler polishing cloth and 5 micron Buehler aluminum oxide, acid-etching said dentine section in 1% (by weight) citric acid solution for about 20 seconds, sonicating said dentine section for 10 minutes, and storing said dentine section in phosphate buffered saline (PBS, pH 7.4).
For treatment, the neat solution is diluted 16-fold with water, yielding a treatment solution with initial zinc concentration of about 0.149% by weight. The dentine section is immersed in the treatment solution for 1 hour at 37° C. The treated dentine section is then removed from the treatment solution, and rinsed 4 times, each time with 1 mL of PBS. The dentine section is then dried using a paper-based tissue and examined under confocal microscope in both XYZ and XYZ modes. Subsequent treatments are conducted in the same manner.
Dentine sections, as prepared in Example 6, are repeatedly treated with ZLC dilutions with initial zinc concentration of 0.0747% by weight. […] The dentine section is examined under the confocal microscope after each treatment.

Series [6] in a line: pH of ZLC neat solution and final diluted samples. To be noted: neat solution, zinc 2.39% by weight. The format is physicochemical. On the procedure:
as §1, §2
pH values of final diluted samples are suitable for oral care applications. […] These pH values were well within the range of 5.5 to 10, which defines the suitable range for oral care formulations.

Where [7] appears, read: gel phase batch, 2 fold dilution.
Setting [8] is: gel phase batch, 4 fold dilution.
Where [9] appears, read: gel phase batch, 8 fold dilution.
[10] abbreviates: gel phase batch, 16 fold dilution.
[11] abbreviates: gel phase batch, 32 fold dilution.
The mark [12] stands for this setting: original gel phase batch with the named active, DI water blank, 0.5% (w/w) zinc.
Setting [13] is: original gel phase batch with the named active.
[14] abbreviates: initial zinc 0.0747% (32-fold dilution), 10 minutes at 37° C. each.
Where [15] appears, read: neat solution diluted 16-fold, zinc about 0.149%, 1 hour at 37° C. each.

On to `[F-].[Na+]` [NaF, Sodium Fluoride], for which, in series [1], the pH came to 7.63. Also, the Absorbance in series [2] (setting [7]) came to 0.0106; in series [2] (setting [8]), 0.0104; in series [2] (setting [9]), 0.0107; in series [2] (setting [10]), 0.0075; in series [2] (setting [11]) it was 0.0137; in series [2] (setting [12]) it was 0.0344.
In the case of `[Cl-].[Cl-].[Zn+2]` [ZnCl2], the pH in series [1] was 5.25. Besides, the Absorbance was 0.7315 in series [2] (setting [7]); 0.3700 in series [2] (setting [8]); 0.1701 in series [2] (setting [9]); 0.0570 in series [2] (setting [10]); 0.0280 in series [2] (setting [11]); 0.9204 in series [2] (setting [12]). Further, in series [2] (setting [13]), the “Appearance / dissolution of active in gel phase” value (from here on “Appearance / dissolution”) is “cloudy”.
In turn, `[O]=[Zn]` [ZnO] came in with a pH in series [1] of 8.30. Moreover, the “Appearance / clarity of mouthwash batch” value in series [3] (original mouthwash batch with the named active) was “milk white”. Besides, in series [3] (original mouthwash batch, undiluted), the “Turbidity (% Transmission)” value was 0%. In addition, the Absorbance in series [2] (setting [7]) was determined as 2.4630; in series [2] (setting [8]), 2.5340; in series [2] (setting [9]) it was 2.1883; in series [2] (setting [10]) it was 1.8638; in series [2] (setting [11]) it was 1.0492; in series [2] (setting [12]), 2.4626. For the same compound, the “Appearance / dissolution” value in series [2] (setting [13]) is “not dissolved”.
For the compound [Zn(C6H14N2O2)2Cl]^+Cl^− [ZLC], the “Flocculation observation two hours after mixing” value in series [4] (additional sample with initial zinc concentration 0.299%) is “presence of flocculation”. Also, in series [4] (all samples except initial zinc concentration 1.20%), the “Flocculation/precipitation observation after a total of 19 hours” value is given as “flocculation and/or precipitation can be observed”. In addition, in series [4] (dilutions with initial zinc concentrations 0.149% and 0.199%), the “Time to some visible flocculation after mixing stock solution with water” value was ≤ 30 min. Further, in series [4] (dilutions with initial zinc concentrations between 0.0747% and 0.239%), the “Flocculation observation one and a half hours after mixing” value is “visible flocculation”. Also, in series [4] (dilutions with initial zinc concentrations between 0.0854% and 0.239%), the “Flocculation observation one hour from mixing” value was “visible flocculation”. Moreover, the “Relative amount of precipitate after a total of 19 hours” value in series [4] (initial zinc concentrations between 0.0747% and 0.239%) was “the most precipitates”. In series [1], the pH amounted to 7.37. Moreover, in series [5] (setting [14]), the “Deposition by confocal imaging after 4 consecutive treatments” value is “significant surface deposition” and the “Deposition/occlusion by confocal imaging after 12 consecutive treatments” value is “complete surface coverage”. Further, the “Visible precipitation during treatment” value in series [5] (initial zinc 0.0747%, 10 minutes at 37° C.) is recorded as “no precipitation is observed by naked eyes”. In series [5] (neat solution diluted 16-fold, zinc about 0.149%, 1 hour at 37° C.), the “Deposition/occlusion by confocal imaging, first treatment” value is reported as “noticeable deposition”. In series [5] (setting [15]), the “Deposition/occlusion by confocal imaging, second treatment” value is “complete surface coverage, including blocking of substantially all tubule openings”; the “Deposition/occlusion by confocal imaging, third treatment” value was “complete surface coverage and complete blocking of tubule openings”; the “Thickness of surface deposits, second treatment” value is recorded as ≥ 10 microns; the “Thickness of surface deposits, third treatment” value is reported as ≥ 25 microns. In series [6], the pH entry is “about 7.03”. In series [2] (setting [9]), this compound had an Absorbance of 0.1860. Further, the Absorbance in series [2] (setting [10]) turned out to be 0.1336. For the same compound, the “Appearance / dissolution” value in series [2] (setting [13]) was “homogenous solution”. Besides, in series [2] (setting [12]), the Absorbance was 0.1765.

For the origin of these results see patent US9980890B2, “Zinc amino acid halide mouthwashes” (Colgate-Palmolive Company, priority 2012, dated 2018).
